This is an account of results in patent US6569863B1, “Bicyclic heteroamatic compounds useful as LH agonists” (Akzo Nobel NV, priority 1999, dated 2003).

For one test, the system named is immature female mice. Put plainly: In vivo ovulation induction assay for LH bioactivity in immature female mice. To be noted: 50 mg/kg p.o., FSH-primed immature female mice, 24 h after administration. Also on record: species or system mouse. The text has this:
In female immature mice which are stimulated with follicle stimulating hormone (FSH), ovulation can be induced by luteininzing hormone (LH) or by human chorionic gonadotrophin (hCG) which binds to the same LH-receptor on the Graafian follicles. Binding to the LH-receptor initiates a biochemical cascade, which eventually results in follicular rupture and extrusion of a mature oocyte. To measure the in vivo activity of LH-agonistic compounds, inunature 20 days old mice (B6D2F1 stain, Broekman Institute, the Netherlands) are primed with unary FSH (Humegon; 12.5 IU/l, 0.1 ml s.c.) to initiate folliculogenesis. Forty-eight hours after FSH treatment test compound, reference compound or vehicle (10% cremophor solution) are administered to the animals. Test compounds (50 mg/kg in 0.1 ml) and vehicle (0.1 ml) are administered p.o., reference compounds (500 IU/kg hCG in 0.1 ml) are injected s.c. As a reference, hCG in-house standards are used which are calibrated against International Reference preparations of human hCG provided by the National Institute for Biological Standards and Controls (NMSC, London, UK). Twenty-four hours after administration of test compound, reference compound or vehicle, animals are killed by cervical dislocation. The oviducts are dissected and collected in 0.9% NaCl. Next, the oviducts are placed between two glass plates and examined for the presence or absence of ovulated ova under a microscope. The number of ovulated ova present in the oviducts is indicative for in vivo LH-bioactivity.

In the next test the target is T1, Leydig cell LH receptor (Mus musculus, UniProt P30730).
T1 construct: Leydig cells are isolated from the testes of mature, 9 to 13 weeks old, mice; from tissue; host or cells: primary Leydig cells from mouse testes (strain HSD/Cpb: S E, Harlan)
T1 sequence (P30730 27-700): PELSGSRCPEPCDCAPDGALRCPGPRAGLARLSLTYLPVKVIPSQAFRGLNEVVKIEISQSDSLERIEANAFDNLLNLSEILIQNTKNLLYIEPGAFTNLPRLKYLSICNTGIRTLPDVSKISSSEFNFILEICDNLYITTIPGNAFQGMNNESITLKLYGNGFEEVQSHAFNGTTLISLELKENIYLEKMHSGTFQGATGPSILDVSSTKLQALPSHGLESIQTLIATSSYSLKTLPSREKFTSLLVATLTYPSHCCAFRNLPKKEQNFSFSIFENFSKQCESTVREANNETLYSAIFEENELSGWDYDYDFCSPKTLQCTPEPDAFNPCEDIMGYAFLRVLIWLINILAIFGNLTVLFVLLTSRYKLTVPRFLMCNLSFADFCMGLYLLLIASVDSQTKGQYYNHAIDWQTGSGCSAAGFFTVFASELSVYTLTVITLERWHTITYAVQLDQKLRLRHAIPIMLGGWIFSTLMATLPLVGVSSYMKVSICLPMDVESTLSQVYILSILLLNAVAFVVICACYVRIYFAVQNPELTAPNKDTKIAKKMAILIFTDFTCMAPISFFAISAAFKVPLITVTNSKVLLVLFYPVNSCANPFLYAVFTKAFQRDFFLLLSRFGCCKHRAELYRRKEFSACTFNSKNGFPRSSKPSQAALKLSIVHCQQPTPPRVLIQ
Put plainly: In vitro test for LH bioactivity in mouse Leydig cells (testosterone production). The format is cell-based. Particulars: 4 h incubation, testosterone measured by RIA. The text has this: In male mice, the luteinising hormone (LH) induces testosterone production in testicular Leydig cells. […] The in vitro Leydig cell assay (van Damme et al, 1974; modified by Mannaerts et al, 1987) is used to determine the LH bioactivity of compounds that bind to the Leydig cell LH receptor which in turn causes testosterone production.
For this assay, Leydig cells are isolated from the testes of mature, 9 to 13 weeks old, mice (strain: HSD/Cpb: S E, Harlan, The Netherlands). Therefore, mice are killed and the testes are quickly removed and decapsulated. Each testis is transferred to a separate well of a tissue culture plate containing 0.75 ml culture medium per well. The contents of each well are passed through a 30 cm glass tube (inside diameter 2.5 mm, narrowed to 1.2 mm at 4 places in the middle). The suspension obtained is filtered through a 30 μm nylon mesh and the filtrate is pre-incubated in a 50 ml plastic tube for 30 min. at 37° C. in an incubator in a water-saturated atmosphere of 95% air/5% CO2. Following preincubation the tube is centrifuged at 1600 N/kg for 5 min and the supernatant is decanted. The resulting pellet is resuspended in culture medium (0.5 mg original testis/ml) and the suspension is kept homogeneous by stirring it very slowly on a magnetic stirrer.
This Leydig cell suspension (100 μl) is added to the wells of a micotiter plate containing 50 μl reference compound, test compound or vehicle (culture medium) per well. As a to reference, LH or hCG in-house standards are used which are calibrated against International Reference preparations of human LH or hCG provided by the National Institute for Biological Standards and Controls (NIBSC, London, UK). Test and reference compounds are dissolved, diluted and assayed in the same culture medium. The plates containing reference and test compounds are incubated for 4 h at 37° C. in an incubator in a water-saturated atmosphere of 95% air/5% CO2. Following incubation, plates are sealed and stored at −20° C. until testosterone measurement.
Prior to testosterone measurement, the contents of the microtiter plates are thawed at room temperature and the plates are centriged at 150 N/kg for 5 min. An aliquot of 30 μl supernatant of each well is diluted with culture medium (60×) to obtain a suitable dilution for testosterone measurement. Aliquots (12.5 μl) of each diluted test sample are then assayed using a direct testosterone RIA-kit.

As to `CSc1nc(-c2cccc(NC(=O)CNC(C)(C)C)c2)c2c(N)c(C(=O)NC(C)(C)C)sc2n1` [Example 116, tert-Butyl 5-Amino-2-methylthio-4-(N-(2-(tert-butylamino)acetyl)-3-aminophenyl)-thieno[2,3-d]pyrimidine-6-carboxamide], in the test with immature female mice, the “Mouse in vivo ovulation induction (% ovulating animals)” value (from here on “Mouse … (% ovulating animals)”) is on record as 13%. In addition, on Leydig cell LH receptor, the EC50 worked out at 320 nM.
The corresponding values for `COc1cccc(-c2nc(SC)nc3sc(C(=O)NC(C)(C)C)c(N)c23)c1` [Example 112, tert-Butyl 5-Amino-2-methylthio-4-(3-methoxyphenyl)-thieno[2,3-d]pyrimidine-6-carboxamide] are 40% and 430 nM.
Turning to `CSc1nc(-c2cccc(NC(=O)c3ccccc3)c2)c2c(N)c(C(=O)NC(C)(C)C)sc2n1` [Example 111, tert-Butyl 5-Amino-2-methylthio-4-(N-benzoyl-3-aminophenyl)-thieno[2,3-d]pyrimidine-6-carboxamide], the “Mouse … (% ovulating animals)” value with immature female mice was 40%. The EC50 at Leydig cell LH receptor worked out at 280 nM.
As to `CSc1nc(-c2cccc(OCCCc3cccnc3)c2)c2c(N)c(C(=O)NC(C)(C)C)sc2n1` [Example 117, tert-Butyl 5-Amino-2-methylthio-4-(3-(3-(3-pyridyl)-propoxy)phenyl)-thieno[2,3-d]pyrimidine-6-carboxamide], the “Mouse … (% ovulating animals)” value in the test with immature female mice was 40%. At Leydig cell LH receptor, the midpoint of the response, the EC50, lay at 1800 nM.
With `COc1cccc(-c2nc(-c3cccs3)nc3sc(C(=O)N4CCOCC4)c(N)c23)c1` [Example 115, 5-Amino-2-(2-thienyl)-4-(3-methoxyphenyl)-6-(N-morpholinocarbonyl)thieno[2,3-d]pyrimidine], the “Mouse … (% ovulating animals)” value in the test with immature female mice is recorded as 20%. Also, it took 3100 nM to reach a half-maximal effect at Leydig cell LH receptor (EC50).
`CCOc1nc(-c2cccc(OC)c2)c2c(N)c(C(=O)NC(C)(C)C)sc2n1` [Example 114, tert-Butyl 5-Amino-2-ethoxy-4-(3-methoxyphenyl)-thieno[2,3-d]pyrimidine-6-carboxamide]: the “Mouse … (% ovulating animals)” value in the test on immature female mice is 30%. Further, the half-maximal effective concentration (EC50) on Leydig cell LH receptor is 1900 nM.
Turning to `COc1cccc(-c2nc(SC)nc3sc(C(=O)N(C)C(C)C)c(N)c23)c1` [Example 113, N-Methyl-N-isopropyl 5-Amino-2-methylthio-4-(3-methoxyphenyl)-thieno[2,3-d]pyrimidine-6-carboxamide], the “Mouse … (% ovulating animals)” value in the test with immature female mice is 50%. The same compound came in with an EC50 on Leydig cell LH receptor of 870 nM.
